SMILES strings stand for the structures. In brackets after ≈: the same amount, converted by molar mass.

Data on seven compounds can be found in ChEMBL document CHEMBL5316372, “NMR Fingerprints of Formyl Phloroglucinol Meroterpenoids and Their Application to the Investigation of Eucalyptus gittinsii subsp. gittinsii” (J Nat Prod, 2023).

One series concerns Plasmodium falciparum. Kind of series: Antiplasmodial activity against Plasmodium falciparum 3D7 incubated for 72 hrs by DAPI staining based analysis. In kind it is functional, organism-based. Particulars: 3D7, 72 h.
The subject of series [1] is Staphylococcus aureus. In words: Antibacterial activity against Methicillin-resistant Staphylococcus aureus ATCC 43300 incubated for 18 hrs by Luria-Bertani broth based plate reader analysis. It is filed as functional.
In series [2] the test system is Staphylococcus aureus. Kind of series: Antibacterial activity against Methicillin-sensitive Staphylococcus aureus ATCC 25923 incubated for 18 hrs by Luria-Bertani broth based plate reader analysis. It is filed as functional.
Series [3] can be described thus: Cytotoxicity against HEK293 cells assessed as inhibition of cell growth at 40 uM incubated for 72 hrs by resazurin based fluorescence plate reader analysis relative to control. It is filed as toxicity. Particulars: human.
The subject of series [4] is HEK293. Kind of series: Cytotoxicity against HEK293 cells assessed as reduction in cell viability at 40 uM incubated for 72 hrs by resazurin based fluorescence plate reader analysis. In kind it is toxicity. Particulars: human, hek293, 72 h.
The subject of series [5] is HEK293. In words: Cytotoxicity against HEK293 cells assessed as reduction in cell viability at 2.5 uM incubated for 72 hrs by resazurin based fluorescence plate reader analysis. In kind it is toxicity. Particulars: human, hek293, 72 h.
Series [6] in a line: Cytotoxicity against HEK293 cells assessed as inhibition of cell growth at 5 uM incubated for 72 hrs by resazurin based fluorescence plate reader analysis relative to control. In kind it is toxicity. The conditions noted are these: human.

For the compound `C=C(C)[C@@H]1C=C2[C@@H](C)CC[C@@H](Cc3c(O)c(C=O)c(O)c(C(=O)CC(C)C)c3O)[C@]2(C)CC1`, the IC50 with Plasmodium falciparum was found to be 1300 nM. The MIC50 against Staphylococcus aureus [1] and in the series on Staphylococcus aureus [2] was 4.7 µM (≈ 2.14 µg/mL) in each case. In series [3], the inhibition at 72 h, 40 µM was > 85%.

`C/C1=C\[C@H]2[C@@H](CC[C@]3(C)Oc4c(C=O)c(O)c(C(=O)CC(C)C)c(O)c4C[C@H]3CC1)C2(C)C` showed an IC50 with Plasmodium falciparum of 23600 nM. For the same compound, the Activity result with HEK293 [4] is recorded as “Non-Toxic”. Moreover, the MIC50 against Staphylococcus aureus [1] and in the series with Staphylococcus aureus [2] was > 75 µM each time.

On to `C/C1=C\[C@@H]2[C@H](CC[C@@]3(C)Oc4c(c(O)c(C=O)c(O)c4C(=O)CC(C)C)C[C@@H]3CC1)C2(C)C`, for which the IC50 in the series on Plasmodium falciparum worked out at 15700 nM. Also, the Activity result in the series with HEK293 [4] is “Non-Toxic”. Moreover, the MIC50 against Staphylococcus aureus [1] and against Staphylococcus aureus [2] was 75 µM (≈ 34.1 µg/mL) throughout.

As for `C[C@H]1[C@H](OC(=O)CCC(=O)O)O[C@@H]2O[C@@]3(C)CC[C@H]4[C@H](C)CC[C@@H]1[C@@]24OO3` [ARTESUNATE], in the series with HEK293 [5], the Activity result is listed as “Non-Toxic”. Inhibition with Plasmodium falciparum was half-maximal at 3 nM (IC50).

For the compound `CC(=O)O[C@H]1C[C@@]2(C)[C@@H](C[C@@H](O)[C@H]3[C@@]4(C)CC[C@@H](O)[C@@H](C)[C@@H]4CC[C@@]32C)/C1=C(\CCC=C(C)C)C(=O)O` [FUSIDIC ACID], the MIC50 against Staphylococcus aureus [1] and in the series on Staphylococcus aureus [2] was < 0.12 µM each time.

In turn, `COc1ccc(C[C@H](N)C(=O)N[C@H]2[C@@H](O)[C@H](n3cnc4c(N(C)C)ncnc43)O[C@@H]2CO)cc1` [PUROMYCIN] displayed an IC50 with Plasmodium falciparum of 80 nM. Also, the inhibition at 72 h, 5 µM in series [6] came to 0.89%.

Regarding `CCc1nc(N)nc(N)c1-c1ccc(Cl)cc1` [PYRIMETHAMINE], inhibition in the series with Plasmodium falciparum was half-maximal at 20 nM (IC50). Also, in series [3], the inhibition at 72 h, 40 µM came to 33.4%.
